Experimental data from patent US20230364074A1, “Compounds and Compositions for Disrupting Programmed Ribosomal Frameshifting” (YALE UNIVERSITY, priority 2020, published 2023).

Tested on: SARS-CoV-2 FSE mutants
Type: cell-based

CCNCC1CCN(c2c(F)cc3c(=O)c(C(=O)O)cn(CC)c3c2F)C1 (centres unmarked) [merafloxacin, 1-ethyl-7-[3-(ethylaminomethyl)pyrrolidin-1-yl]-6,8-difluoro-4-oxoquinoline-3-carboxylic acid]
frameshifting inhibition in structure-perturbing FSE mutants: significantly inhibited frameshifting in all variants | −1 PRF inhibition in naturally occurring FSE variants: inhibited −1 PRF in all variants with similar efficacy
